Reference: patent publication US20090082355A1, “Method of Combating Root Weevils” (BASF SE, priority 2006, published 2009)

Key:
Format in all cases: in vivo, Otiorhynchus sulcatus (black vine weevil)
Otiorhynchus sulcatus [1] = test: Control of Otiorhynchus sulcatus eggs/first instar larvae on the Spreading Yew (treated potting medium); settings: DC formulation, Taxus media densiformis, 25 eggs per plant, live larvae recorded after 3 months
Description: Taxus media densiformis plants were planted in potting medium (60% parts pine bark, 20% hardwood bark and 20% peat) which had been treated before with a DC formulation of the active ingredient diluted with water. Plants were maintained outdoors under standard nursery management conditions throughout the growing season. Incubated vine weevil eggs were obtained from a culture of field-collected adults. Plants were infested with 25 brown eggs each. The total number of live larvae was recorded after 3 months. Each experiment was replicated 5 times.

Otiorhynchus sulcatus [2] = test: Control of Otiorhynchus sulcatus larvae in the woody ornamental Thuja occidentalis 'Holmstrub' (pot trial); settings: for Average feeding on roots: method B, index 1 no feeding observed to 4 most roots are damaged; for Average number of total larvae: treatment method B (drench), 20 eggs per pot, approx. 8 months after treatment
Description: Root cuttings of Thuja occidentalis ‘Holmstrub’ were potted in 3-liter containers using a standard soil substrate and first placed on an outdoor container field for four months and then transferred to an indoor container field at a temperature of 15-20° C. for another four months. In treatment method A, 750 g Suscon (chloropyrifos)/m^3 were mixed through the soil substrate. In treatment method B, the calculated amount of product was dissolved in 0.75 l water and added to the 3 litre pot as a drench. The soil of the pot was moistened before application. Eggs of Otiorhynchus sulcatus (20 eggs per pot) were added to the pots 15 weeks after treatment. Approximately 8 months after treatment, the average total number of live larvae (hereinafter also referred to as “average of total larvae”) and the average feeding on the roots were determined. The feeding on the roots was assessed according to the following index rating:
1 no feeding observed 2 slight feeding 3 significant feeding, few root tips are present 4 most roots are damaged
Each experiment was replicated 4 times.

Otiorhynchus sulcatus [3] = test: Control of Otiorhynchus sulcatus adults on Euonymus fortunei 'Dart's Blanket': contact effect; settings: 20° C.
Description: (§1) The efficacy of different doses of compound I-1 to control adults of the black vine weevil (Otiorhynchus sulcatus) was tested after direct contact and after feeding of the product. The formulated product was dissolved in water and the resulting aqueous solution/suspension was applied to black vine weevil adults directly or to Euonymus fortunei branches and the branches were exposed to black vine weevil adults.
The treatments were applied by spraying 10 black vine weevils per petri-dish. The vine weevils were completely moistened after spraying. Afterwards the vine weevils were put into a bucket, in which 5 untreated branches of Euonymus fortunei ‘Dart's Blanket’ were placed. The buckets were randomly placed on Danish lorries in a climate cell. After 1 and 5 days, the number of dead vine weevils was counted. The climate cell was adjusted at a constant temperature of 20° C. with 16 hours of light and 8 hours of darkness. Each treatment was replicated 4 times.

Otiorhynchus sulcatus [4] = test: Control of Otiorhynchus sulcatus adults on Euonymus fortunei 'Dart's Blanket': feeding effect; settings: 10 untreated weevils, 20° C.
Description: as §1
4 plants of Euonymus fortunei ‘Dart's Blanket’ per treatment were sprayed until drip stadium. 10 untreated black vine weevils were put in a bucket in which 5 treated branches were placed. The buckets were randomly placed on Danish lorries in a climate cell. After 5 and 10 days the number of dead vine weevils were counted. The climate cell was adjusted at a constant temperature of 20° C. with 16 hours of light and 8 hours of darkness. Each treatment was replicated 4 times.

[5] = 1.14 g a.i./l sprayed on 10 weevils
[6] = 2.27 g a.i./l sprayed on 10 weevils
[7] = 4.56 g a.i./l sprayed on 10 weevils
[8] = branches sprayed with 1.14 g a.i./l
[9] = branches sprayed with 2.27 g a.i./l
[10] = branches sprayed with 4.56 g a.i./l

CCNC(=NNc1c(Cl)cc(C(F)(F)F)cc1Cl)C1(C)CC1(Cl)Cl (stereo not drawn) [Compound I-1, N-Ethyl-2,2-dichloro-1-methylcyclopropane-carboxamide-2-(2,6-dichloro-α,α,α-trifluoro-p-tolyl)hydrazone]
control (Otiorhynchus sulcatus [1]; rate 250 ppm in potting medium): over 95% | control (Otiorhynchus sulcatus [1]; rate 750 ppm in potting medium): over 95% | control (Otiorhynchus sulcatus [1]; rate 1500 ppm in potting medium): over 95% | Average feeding on roots (Otiorhynchus sulcatus [2]; 0.9125 g or ml product/3 l pot): 1.1 | Average number of total larvae (Otiorhynchus sulcatus [2]; 0.9125 g or ml product/3 l pot): 0.1 | Average feeding on roots (Otiorhynchus sulcatus [2]; 1.825 g or ml product/3 l pot): 1.0 | Average number of total larvae (Otiorhynchus sulcatus [2]; 1.825 g or ml product/3 l pot): 0.0 | Average feeding on roots (Otiorhynchus sulcatus [2]; 3.65 g or ml product/3 l pot): 1.0 | Average number of total larvae (Otiorhynchus sulcatus [2]; 3.65 g or ml product/3 l pot): 0.0 | phytotoxicity (Otiorhynchus sulcatus [2]; Thuja occidentalis 'Holmstrub' pot trial): no signs of phytotoxicity | efficacy against the larvae (in words) (Otiorhynchus sulcatus [2]; all treatments in different doses): effective against the larvae of Otiorhynchus sulcatus | control of larvae and feeding damage compared with the standard treatment (Otiorhynchus sulcatus [2]; versus Suscon (chloropyrifos)): better control of Otiorhynchus sulcatus larvae and feeding damage than the standard treatment of Suscon (chloropyrifos) | Average number of dead adults after 1 day (Otiorhynchus sulcatus [3]; [5]): 0.5 | Average number of dead adults after 5 days (Otiorhynchus sulcatus [3]; [5]): 6.0 | Average number of dead adults after 1 day (Otiorhynchus sulcatus [3]; [6]): 0.3 | Average number of dead adults after 5 days (Otiorhynchus sulcatus [3]; [6]): 9.0 | Average number of dead adults after 1 day (Otiorhynchus sulcatus [3]; [7]): 0.8 | Average number of dead adults after 5 days (Otiorhynchus sulcatus [3]; [7]): 8.5 | Average number of dead adults after 5 days (Otiorhynchus sulcatus [4]; [8]): 8.5 | Average number of dead adults after 10 days (Otiorhynchus sulcatus [4]; [8]): 10.0 | Average number of dead adults after 5 days (Otiorhynchus sulcatus [4]; [9]): 6.5 | Average number of dead adults after 10 days (Otiorhynchus sulcatus [4]; [9]): 8.8 | Average number of dead adults after 5 days (Otiorhynchus sulcatus [4]; [10]): 8.8 | Average number of dead adults after 10 days (Otiorhynchus sulcatus [4]; [10]): 10.0
